Tested on: hyperprolactinemia-induced female rats
Experiment: Hyperprolactinemia-induced (metoclopramide) animal model of premenstrual syndrome, serum prolactin and progesterone by ELISA
Type: in vivo
Conditions: 50 mg/kg metoclopramide to the abdominal cavity for 5 days
Method: Metoclopramide is used as an antiemetic drug, and increases the secretion of prolactin by inhibiting dopamine secretion, and accordingly, it is known as a drug that inhibits the secretion of progesterone, luteinizing hormone, and follicle-stimulating hormone (Wang et al., 2014). Therefore, in the present invention, 50 mg/kg of metoclopramide was administered to the abdominal cavity of female rats for 5 days, after which hyperprolactinemia was induced to establish an animal model of premenstrual syndrome caused by hormone secretion disorder. Rats (females) were obtained from Raonbio, and were acclimatized for 1 week while general solid feed and water were freely supplied thereto. The environmental conditions of the animal room were set to a temperature of 23±3° C., a relative humidity of 50±10%, a lighting time of 12 hours (8 am to 8 pm), a ventilation frequency of 10 to 20 times/hour, and an illumination intensity of 150 to 300 Lux. During the experiment, the temperature and humidity of the animal room were automatically controlled using a thermo-hygrostat. […] After termination of the experiment, blood was collected, serum was isolated therefrom, and the amounts of secreted prolactin and progesterone in the serum were measured using an ELISA kit. […]

## CCN(CC)CCNC(=O)c1cc(Cl)c(N)cc1OC [metoclopramide, Metoclopramide]
FIG. 1
  Prolactin levels in the serum after model induction: increased
FIG. 2
  Progesterone levels in the serum after model induction (fraction of normal): about ⅕

Reference: patent publication US12171797B2, “Composition for ameliorating premenstrual syndrome symptoms, including chrysanthemum zawadskii extract” (GENENCELL INC., priority 2019, dated 2024)
